Data: US12178807B2, “Macrocyclic tyrosine kinase inhibitor and uses thereof” (XUANZHU BIOPHARMACEUTICAL CO., LTD., priority 2018, dated 2024)

What was measured:
[1] = system: Ba/F3 ETV6-NTRK3-G623R cell line; assay: In vitro cytological inhibitory activity (CelltiterGlo assay); format: cell-based; conditions: Mus musculus, BaF3, Ba/F3 ETV6-NTRK3-G623R cells, 72 hrs
Protocol: (§1) The cell lines used in the experiment have the following meanings: Ba/F3 LMNA-NTRK1-G595R cell line: • a stable expression cell line of Ba/F3 cells transfected with LMNA-NTRK1 G595R; Ba/F3 ETV6-NTRK3-G623R cell line: • a stable expression cell line of Ba/F3 cells transfected with ETV6-NTRK3-G623R. Experimental Method (CelltiterGlo Assay) 1. Cell Culture and Inoculation
(§2) All cells were suspension cells and the medium was RPMI-1640+10% FBS, and cells were tested in a logarithmic growth phase.
(§3) Cells in the logarithmic growth phase were collected and counted using a […]. The cell viability was detected by the trypan blue exclusion method, and the cell viability was kept over 90%. The cell concentration was adjusted to be in a proper range; 90 μL of the cell suspension was added to a 96-well plate.
(§4) The stock solutions of test compounds were diluted from 10 mM to 1 mM with DMSO and then serially diluted in a 3-fold gradient for 9 concentrations. The 2 μL DMSO-gradient diluted compound solutions were added to 98 μL culture solutions to give working stock solutions of test compounds (compound concentration was 10-fold higher than the final concentration, DMSO concentration was 1%, maximum concentration was 10 μM).
(§5) • 10 μL of compound working stock solution was added to each well in the 96-well plate inoculated with cells (10-fold dilution, final DMSO concentration was 0.1%).
(§6) The cells were cultured in a cell culture incubator at 5% CO2 for 72 hrs.
(§7) The CTG reagent was thawed and the cell plate was equilibrated to room temperature for 30 mins, 60 μL of reagent (Celltiter Glo assay kit) was added to each well, shaking was performed for 2 mins with a shaker (in the absence of light), and the plate was incubated at room temperature for 10 mins (in the absence of light). The light signal values were read on the multi-functional microplate reader.
(§8) • 1) Inhibition (%)=(DMSO solvent control well reading−test compound well reading)/(DMSO solvent control well reading−blank well reading)×100%; • 2) a curve was plotted with GraphPad Prism 5.0 and IC50 was obtained.

[2] = system: Ba/F3 LMNA-NTRK1-G595R cell line; assay: as above; format: cell-based; conditions: Mus musculus, BaF3, Ba/F3 LMNA-NTRK1-G595R cells, 72 hrs
Protocol: as §1, §2, §3, §4, §5, §6, §7, §8

[3] = system: Ba/F3 SLC34A2/ROS1-G2032R cell line; assay: In vitro cytological inhibitory activity (Celltiter-Glo assay); format: cell-based; conditions: Mus musculus, BaF3, Ba/F3 SLC34A2/ROS1-G2032R cells, 72 hrs
Protocol: The cell lines used in the experiment have the following meanings: • Ba/F3 SLC34A2/ROS1-G2032R cell line: • a stable expression cell line of Ba/F3 cells transfected with SLC34A2/ROS1-G2032R. Experimental Method (Celltiter-Glo Assay) 1. Cell Culture and Inoculation
as §2, §3
as §4, with “3.16-fold” for “3-fold”
as §5
The final concentrations of test compounds were: 1000 nM, 316 nM, 100 nM, 31.6 nM, 10 nM, 3.16 nM, 1 nM, 0.316 nM and 0.1 nM.
as §6
as §7, with “100” for “60”, “5” for “2”, “20” for “10”
• 1) Cell viability (%)=(test compound well reading−blank well reading)/(DMSO solvent control well reading−blank well reading)×100%; • 2) a curve was plotted with GraphPad Prism 5.0 and IC50 was obtained.

[4] = system: BaF3-LMNA-NTRK1-G595R stable cell strain xenograft tumor; assay: Efficacy study on BaF3-LMNA-NTRK1-G595R stable cell strain subcutaneous xenograft model; format: in vivo, mice (NOD-SCID); conditions: bid, p.o., 7 days
Protocol: The RPMI 1640 serum-free medium resuspended BaF3 LMNA-NTRK1-G595R stable cell strains were inoculated subcutaneously in the right scapular region of mice (NOD-SCID) at 1×10^6 cells/mouse (0.1 mL/mouse).
When the average tumor volume was around 500 mm^3, the groups were randomized into vehicle group, Compound 3 group (10 mg/kg, 5 mg/kg, 3 mg/kg, 1 mg/kg, bid) and LOXO-195 group (30 mg/kg, 10 mg/kg, 3 mg/kg, bid).

Row | SMILES | IC50 [1] | IC50 [2] | IC50 [3] | T/C (%) ([4]; Experiment 1, 3 mg/Kg) | TGI (%) ([4]; Experiment 1, 3 mg/Kg) | other results
1 | C[C@H]1COc2ncc(F)cc2[C@H]2CCCN2c2ccc3ncn(c3n2)C(=O)N1 (single isomer, unassigned) [Compound 2] | 1 nM | 0.6 nM |  |  |  | 
2 | C[C@@H]1COc2ncc(F)cc2[C@H]2CCCN2c2ccc3ncn(c3n2)C(=O)N1 (single isomer, unassigned) [Compound 3] | 1 nM | 0.6 nM | 2.3 nM | 73.2% | 26.8% | T/C (%) ([4]; Experiment 2, 1 mg/Kg): 53.7%; TGI (%) ([4]; Experiment 2, 1 mg/Kg): 46.3%; T/C (%) ([4]; Experiment 2, 5 mg/Kg): 0%; TGI (%) ([4]; Experiment 2, 5 mg/Kg): 100%; T/C (%) ([4]; Experiment 2, 10 mg/Kg): 0%; TGI (%) ([4]; Experiment 2, 10 mg/Kg): 100%
3 | C[C@@H]1CCc2ncc(F)cc2[C@H]2CCCN2c2ccc3ncn(c3n2)C(=O)N1 (single isomer, unassigned) [Compound 11] | 1.9 nM | 2 nM | 4.2 nM |  |  | 
4 | C[C@H]1COc2ncc(F)cc2[C@@H](C)Nc2ccc3ncn(c3n2)C(=O)N1 [Compound 13, (3R,7S)-4^5-fluoro-3,7-dimethyl-1^3H-5-oxa-2,8-diaza-1(5,3)-imidazo[4,5-b]pyridina-4(3,2)-pyridinacyclononphan-9-one] | 18.9 nM | 17.3 nM | 6.7 nM |  |  | 
5 | C[C@@H]1CCc2ncc(F)cc2[C@H]2CCCN2c2ccn3ncc(c3n2)C(=O)N1 [LOXO-195, reference compound] |  |  |  | 93.6% | 6.4% | T/C (%) ([4]; Experiment 1, 10 mg/Kg): 63.1%; TGI (%) ([4]; Experiment 1, 10 mg/Kg): 36.9%; T/C (%) ([4]; Experiment 2, 30 mg/Kg): 0%; TGI (%) ([4]; Experiment 2, 30 mg/Kg): 100%
